# Tests used:
# CD19+ B cells = assay: Human B cell proliferation assay (3H-thymidine incorporation); details: purified human B cells, 5 μg/ml, 96 h
# human PBMCs = assay: Human PBMC cytokine response assay (IFN-γ and IFN-α in cell-free medium by ELISA), with or without cPLGA; assay type: cell-based; details: PBMCs from 8 donors, 20 μg/ml, 24 h
Substance,"B cell proliferation (FIG. 11), in words (CD19+ B cells)","IFN-α induction (FIG. 10), in words (human PBMCs)"
(5′-TCGTCGT-3′-HEG)2-glycerol-HEG-5′-TCGTCGT-3′ [Compound C-142],induce B cells to proliferate,induce high levels of IFN-α
(5′-TCGTTCG-3′-HEG)2-glycerol-HEG-5′-TCGTTCG-3′ [Compound C-158],induce B cells to proliferate,induce high levels of IFN-α
